According to the NIST ThermoML archive (doi:10.1021/je040008e):
Numbers after ± are expanded uncertainties.

What was measured:
[1] = xn = mol fraction of the nth substance listed; settings: 308.15 K, 101.33 kPa, Liquid; for speed of sound: Linear variable-path acoustic interferometer
[2] = 101.33 kPa, Liquid; for speed of sound: Linear variable-path acoustic interferometer

CNC(C)=O [N-methylacetamide] + CC(=O)c1ccc(C)cc1
[1], x2 = 0
Settings | excess molar volume [m3/mol] | speed of sound [m/s]
– | 0 ± 2e-08 | 1360 ± 4.4

CCC(=O)c1ccccc1 [ethyl phenyl ketone] + CNC(C)=O
[1]
Settings | excess molar volume [m3/mol] | speed of sound [m/s]
x1 = 0.06 | -2.003e-07 ± 2.1e-08 | 1368.3 ± 4.5
x1 = 0.1269 | -3.185e-07 ± 2.2e-08 | 1374.7 ± 4.5
x1 = 0.1862 | -3.356e-07 ± 2.2e-08 | 1380.6 ± 4.5
x1 = 0.2778 | -2.912e-07 ± 2.2e-08 | 1388.9 ± 4.5
x1 = 0.3654 | -2.106e-07 ± 2.1e-08 | 1397.8 ± 4.5
x1 = 0.4649 | -1.397e-07 ± 2.1e-08 | 1406.6 ± 4.6
x1 = 0.5709 | -8.14e-08 ± 2.1e-08 | 1413.5 ± 4.6
x1 = 0.6929 | -1.92e-08 ± 2e-08 | 1419.6 ± 4.6
x1 = 0.8315 | 3.82e-08 ± 2e-08 | 1426.6 ± 4.6
x1 = 1 | 0 ± 2e-08 | 1432.1 ± 4.6

CNC(C)=O [N-methylacetamide] + CC(=O)c1ccccc1
[1]
Settings | excess molar volume [m3/mol] | speed of sound [m/s]
x2 = 0 | 0 ± 2e-08 | 1360 ± 4.4
x2 = 0.0686 | -1.018e-07 ± 2.1e-08 | 1368.7 ± 4.5
x2 = 0.138 | -1.732e-07 ± 2.1e-08 | 1376.6 ± 4.5
x2 = 0.2189 | -2.437e-07 ± 2.2e-08 | 1386.8 ± 4.5
x2 = 0.3143 | -2.579e-07 ± 2.2e-08 | 1398 ± 4.5
x2 = 0.3938 | -2.476e-07 ± 2.2e-08 | 1406.1 ± 4.6
x2 = 0.4912 | -2.365e-07 ± 2.1e-08 | 1415.3 ± 4.6
x2 = 0.6042 | -1.695e-07 ± 2.1e-08 | 1424.2 ± 4.6
x2 = 0.7223 | -1.212e-07 ± 2.1e-08 | 1431.4 ± 4.6
x2 = 0.8517 | -5.09e-08 ± 2e-08 | 1438 ± 4.7

CNC(C)=O [N-methylacetamide]
[2], 308.15 K
Settings | mass density [kg/m3] | speed of sound [m/s]
– | 949.7 ± 1.4 | 1360 ± 4.4

CCC(=O)c1ccccc1 [ethyl phenyl ketone]
[2]
Settings | mass density [kg/m3] | speed of sound [m/s]
298.15 K | 1009.2 ± 1.4 | –
308.15 K | – | 1432.1 ± 4.6

CC(=O)c1ccccc1 [acetophenone] + CNC(C)=O
[1], x1 = 1
Settings | excess molar volume [m3/mol] | speed of sound [m/s]
– | 0 ± 2e-08 | 1445 ± 4.7

CNC(C)=O [N-methylacetamide] + CCC(=O)c1ccccc1
[1], x2 = 0
Settings | excess molar volume [m3/mol] | speed of sound [m/s]
– | 0 ± 2e-08 | 1360 ± 4.4

CC(=O)c1ccc(Cl)cc1 [4'-chloroacetophenone]
[2]
Settings | mass density [kg/m3] | speed of sound [m/s]
298.15 K | 1188.9 ± 1.7 | –
308.15 K | – | 1390 ± 4.5

CC(=O)c1ccc(C)cc1 [4'-methylacetophenone] + CNC(C)=O
[1]
Settings | excess molar volume [m3/mol] | speed of sound [m/s]
x1 = 0.0617 | -1.519e-07 ± 2.1e-08 | 1368.9 ± 4.5
x1 = 0.1321 | -2.517e-07 ± 2.2e-08 | 1377.7 ± 4.5
x1 = 0.2004 | -3.355e-07 ± 2.2e-08 | 1385.8 ± 4.5
x1 = 0.2836 | -3.41e-07 ± 2.2e-08 | 1394.4 ± 4.5
x1 = 0.3629 | -3.52e-07 ± 2.2e-08 | 1402.4 ± 4.6
x1 = 0.4632 | -3.458e-07 ± 2.2e-08 | 1411.5 ± 4.6
x1 = 0.5582 | -3.114e-07 ± 2.2e-08 | 1418.4 ± 4.6
x1 = 0.689 | -2.508e-07 ± 2.2e-08 | 1426.9 ± 4.6
x1 = 0.8305 | -1.92e-07 ± 2.1e-08 | 1434 ± 4.7
x1 = 1 | 0 ± 2e-08 | 1437.9 ± 4.7

CNC(C)=O [N-methylacetamide] + CC(=O)c1ccc(Cl)cc1
[1], x2 = 0
Settings | excess molar volume [m3/mol] | speed of sound [m/s]
– | 0 ± 2e-08 | 1360 ± 4.4

CC(=O)c1ccccc1 [acetophenone]
[2]
Settings | mass density [kg/m3] | speed of sound [m/s]
298.15 K | 1023.1 ± 1.4 | –
308.15 K | – | 1445 ± 4.7

CC(=O)c1ccc(C)cc1 [4'-methylacetophenone]
[2], 308.15 K
Settings | mass density [kg/m3] | speed of sound [m/s]
– | 996.3 ± 1.5 | 1437.9 ± 4.7

CC(=O)c1ccc(Cl)cc1 [4'-chloroacetophenone] + CNC(C)=O
[1]
Settings | excess molar volume [m3/mol] | speed of sound [m/s]
x1 = 0.0644 | -2.11e-07 ± 2.1e-08 | 1363 ± 4.4
x1 = 0.1311 | -3.3e-07 ± 2.2e-08 | 1366 ± 4.5
x1 = 0.2036 | -4.53e-07 ± 2.3e-08 | 1369.3 ± 4.5
x1 = 0.2825 | -5.363e-07 ± 2.3e-08 | 1372.4 ± 4.5
x1 = 0.3696 | -5.889e-07 ± 2.3e-08 | 1375.8 ± 4.5
x1 = 0.4664 | -5.934e-07 ± 2.4e-08 | 1379.5 ± 4.5
x1 = 0.5774 | -5.393e-07 ± 2.3e-08 | 1382.6 ± 4.5
x1 = 0.7003 | -4.298e-07 ± 2.3e-08 | 1385.1 ± 4.5
x1 = 0.8405 | -2.52e-07 ± 2.2e-08 | 1387.6 ± 4.5
x1 = 1 | 0 ± 2e-08 | 1390 ± 4.5
